In US5366733A, “Method for the treatment of periodontal disease by sustained delivery of a therapeutic agent to the periodontal pocket, and composition of matter therefor” (priority 1991, dated 1994):

Assays:
[1] = tested on: organisms associated with periodontal disease; details: cited from earlier work
[2] = dog, in vivo
Experimental: Therefore, a study to evaluate four different minocycline periodontal formulations relative to determining minocycline levels in crevicular fluid was conducted in a dog model. The study utilized beagle dogs with surgically created "chronic" intrabony periodontal defects. This model entails the extraction of the two lower fourth premolars and the induction of surgically created intrabony defects at the mesial surface of the first molars and distal surface of the third premolars.
In sequence, the defects were created as follows: First, the lower fourth premolars were extracted, sockets were allowed to heal for one month, and dogs received a full mouth scaling and tooth cleaning. […] Dogs were monitored for an additional four weeks.
For evaluation of crevicular levels of minocycline, dogs were placed under general anesthesia, and the various formulations were administered into the periodontal pockets associated with the created defects. […] The strip was then removed, and the relative amount of fluid was determined by a Periotron 6000 instrument. […]
Strips were assayed for minocycline by a microbiological technique that involves use of the minocycline-susceptible bacterium, Bacillus cereus. […] Zones of inhibited bacterial growth were plotted, and the quantity of minocycline present was determined by comparison with zones obtained with minocycline solutions of known concentration. […]

Periods for which minimum inhibitory concentrations (MIC's) can be achieved [2]: up to two
Structure (SMILES): CN(C)c1ccc(O)c2c1C[C@H]1C[C@H]3[C@H](N(C)C)C(O)=C(C(N)=O)C(=O)[C@@]3(O)C(O)=C1C2=O [minocycline, 7-dimethylamino-6-deoxy-6-demethyltetracycline]
MIC's for organisms associated with periodontal disease [1]: 0.05 to 1.56 µg/mL
